# From patent publication US12655116B2, “Substituted isophthalic acid diamides” (Bayer Aktiengesellschaft, priority 2020, dated 2026)
# Experiments:
# MATIN [1] = test: Post-emergence herbicidal action against MATIN; format: in vivo, Matricaria inodora; settings: Tripleurospermum inodorum, 504 h, dosage 20 g/ha
# Summary of the method: (§1)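 Visual % rating (0% = as untreated, 100% = dead) ~3 wk after spraying one-leaf-stage plants grown in sandy loam; WP/EC in water at 600–800 l/ha, 0.2% wetting agent.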
# ABUTH [2] = test: Pre-emergence herbicidal action against ABUTH; format: in vivo, Abutilon theophrasti; settings: Abutilon theophrasti, 504 h
# Summary of the method: (§2)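 Sandy loam pots, seeds covered with soil, then surface-treated with WP or EC formulations at 600–800 l/ha water plus 0.2% wetting agent. Greenhouse, 3 weeks. Percent damage vs untreated controls.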
# PHBPU [3] = test: Post-emergence herbicidal action against PHBPU; format: in vivo, Pharbitis purpurea; settings: Ipomoea purpurea, 504 h
# Summary of the method: as §1
# VERPE [4] = test: Pre-emergence herbicidal action against VERPE; format: in vivo, Veronica persica; settings: Veronica persica, 504 h, dosage 80 g/ha
# Summary of the method: as §2
# POLCO = test: Pre-emergence herbicidal action against POLCO; format: in vivo, Polygonum convolvulus; settings: Fallopia convolvulus, 504 h, dosage 80 g/ha
# Summary of the method: as §2
# DIGSA [5] = test: Post-emergence herbicidal action against DIGSA; format: in vivo, Digitaria sanguinalis; settings: Digitaria sanguinalis, 504 h
# Summary of the method: as §1
# AVEFA [6] = test: Post-emergence herbicidal action against AVEFA; format: in vivo, Avena fatua; settings: Avena fatua, 504 h, 20 g/ha, visual assessment about 3 weeks after treatment, 100% = plants have died, 0% = like control plants
# Summary of the method: as §1
# VERPE [7] = test: Post-emergence herbicidal action against VERPE; format: in vivo, Veronica persica; settings: Veronica persica, 504 h, 20 g/ha
# Summary of the method: as §1
# VIOTR [8] = test: Pre-emergence herbicidal action against VIOTR; format: in vivo, Viola tricolor; settings: Viola tricolor, 504 h
# Summary of the method: as §2
# MATIN [9] = test: Pre-emergence herbicidal action against MATIN; format: in vivo, Matricaria inodora; settings: Tripleurospermum inodorum, 504 h
# Summary of the method: as §2
# VIOTR [10] = test: Post-emergence herbicidal action against VIOTR; format: in vivo, Viola tricolor; settings: Viola tricolor, 504 h
# Summary of the method: as §1
# ALOMY [11] = test: Post-emergence herbicidal action against ALOMY; format: in vivo, Alopecurus myosuroides; settings: Alopecurus myosuroides, 504 h, dosage 20 g/ha, visual assessment about 3 weeks after treatment vs untreated controls
# Summary of the method: as §1
# STEME [12] = test: Pre-emergence herbicidal action against STEME; format: in vivo, Stellaria media; settings: Stellaria media, 504 h
# Summary of the method: as §2
# AMARE [13] = test: Post-emergence herbicidal action against AMARE; format: in vivo, Amaranthus retroflexus; settings: Amaranthus retroflexus, 504 h, 20 g/ha, visual assessment about 3 weeks after treatment, 100% = plants have died, 0% = like control plants
# Summary of the method: as §1
# AMARE [14] = test: Pre-emergence herbicidal action against AMARE; format: in vivo, Amaranthus retroflexus; settings: Amaranthus retroflexus, 504 h, scored visually after 3 weeks vs untreated controls, 100% = plants have died, 0% = like control plants
# Summary of the method: as §2
# SETVI [15] = test: Post-emergence herbicidal action against SETVI; format: in vivo, Setaria viridis; settings: Setaria viridis, 504 h, dosage 20 g/ha
# Summary of the method: as §1
# STEME [16] = test: Post-emergence herbicidal action against STEME; format: in vivo, Stellaria media; settings: Stellaria media, 504 h, 20 g/ha
# Summary of the method: as §1
# ECHCG [17] = test: Pre-emergence herbicidal action against ECHCG; format: in vivo, Echinochloa crus-galli; settings: Echinochloa crus-galli, 504 h, 80 g/ha
# Summary of the method: as §2
# ABUTH [18] = test: Post-emergence herbicidal action against ABUTH; format: in vivo, Abutilon theophrasti; settings: Abutilon theophrasti, 504 h, visual assessment about 3 weeks after treatment vs untreated controls
# Summary of the method: as §1
# AVEFA [19] = test: Pre-emergence herbicidal action against AVEFA; format: in vivo, Avena fatua; settings: Avena fatua, 504 h; 80 g/ha, pre-emergence
# Summary of the method: as §2
# DIGSA [20] = test: Pre-emergence herbicidal action against DIGSA; format: in vivo, Digitaria sanguinalis; settings: Digitaria sanguinalis, 504 h
# Summary of the method: as §2
# ALOMY [21] = test: Pre-emergence herbicidal action against ALOMY; format: in vivo, Alopecurus myosuroides; settings: Alopecurus myosuroides, 504 h; 80 g/ha, pre-emergence, scored visually after 3 weeks vs untreated controls (100% = plants have died, 0% = like control plants)
# Summary of the method: as §2
# PHBPU [22] = test: Pre-emergence herbicidal action against PHBPU; format: in vivo, Pharbitis purpurea; settings: Ipomoea purpurea, 504 h, dosage 80 g/ha
# Summary of the method: as §2
# LOLRI = test: Pre-emergence herbicidal action against LOLRI; format: in vivo, Lolium rigidum; settings: Lolium rigidum, 504 h, 80 g/ha
# Summary of the method: as §2
# SETVI [23] = test: Pre-emergence herbicidal action against SETVI; format: in vivo, Setaria viridis; settings: Setaria viridis, 504 h, dosage 80 g/ha
# Summary of the method: as §2
# ECHCG [24] = test: Post-emergence herbicidal action against ECHCG; format: in vivo, Echinochloa crus-galli; settings: Echinochloa crus-galli, 504 h
# Summary of the method: as §1
smiles,measurement,setting,value
Cc1c(C(=O)Nc2nnnn2C)ccc(C(F)F)c1C(=O)NC1CC1 [Example 1-46],pest or weed control at 20 g/ha,MATIN [1],80%
same,pest or weed control at 80 g/ha,"ABUTH [2]; 80 g/ha, scored visually after 3 weeks vs untreated controls (100% = plants have died, 0% = like control plants)",100%
same,pest or weed control at 20 g/ha,"ABUTH [2]; dosage 20 g/ha, scored visually after 3 weeks vs untreated controls, 100% = plants have died, 0% = like control plants, read-out: Pre-emergence action against ABUTH (herbicidal activity in percent)",90%
same,pest or weed control at 5 g/ha,PHBPU [3]; dosage 5 g/ha,80%
same,pest or weed control at 20 g/ha,PHBPU [3]; dosage 20 g/ha,80%
same,pest or weed control at 80 g/ha,VERPE [4],90%
same,pest or weed control at 80 g/ha,POLCO,80%
same,pest or weed control at 5 g/ha,DIGSA [5]; 5 g/ha,80%
same,pest or weed control at 20 g/ha,DIGSA [5]; 20 g/ha,80%
same,pest or weed control at 20 g/ha,AVEFA [6],80%
same,pest or weed control at 20 g/ha,VERPE [7],90%
same,pest or weed control at 20 g/ha,VIOTR [8]; dosage 20 g/ha,90%
same,pest or weed control at 80 g/ha,VIOTR [8]; dosage 80 g/ha,100%
same,pest or weed control at 20 g/ha,MATIN [9]; dosage 20 g/ha,90%
same,pest or weed control at 80 g/ha,MATIN [9]; dosage 80 g/ha,100%
same,pest or weed control at 5 g/ha,VIOTR [10]; 5 g/ha,80%
same,pest or weed control at 20 g/ha,VIOTR [10]; 20 g/ha,80%
same,pest or weed control at 20 g/ha,ALOMY [11],90%
same,pest or weed control at 20 g/ha,STEME [12]; dosage 20 g/ha,90%
same,pest or weed control at 80 g/ha,STEME [12]; dosage 80 g/ha,100%
same,pest or weed control at 20 g/ha,AMARE [13],100%
same,pest or weed control at 20 g/ha,AMARE [14]; 20 g/ha,100%
same,pest or weed control at 80 g/ha,AMARE [14]; 80 g/ha,100%
same,pest or weed control at 20 g/ha,SETVI [15],80%
same,pest or weed control at 20 g/ha,STEME [16],80%
same,pest or weed control at 80 g/ha,ECHCG [17],80%
same,pest or weed control at 5 g/ha,ABUTH [18]; dosage 5 g/ha,90%
same,pest or weed control at 20 g/ha,ABUTH [18]; dosage 20 g/ha,90%
same,pest or weed control at 80 g/ha,AVEFA [19],100%
same,pest or weed control at 20 g/ha,DIGSA [20]; dosage 20 g/ha,90%
same,pest or weed control at 80 g/ha,DIGSA [20]; dosage 80 g/ha,100%
same,pest or weed control at 80 g/ha,ALOMY [21],90%
same,pest or weed control at 80 g/ha,PHBPU [22],80%
same,pest or weed control at 80 g/ha,LOLRI,90%
same,pest or weed control at 80 g/ha,SETVI [23],100%
same,pest or weed control at 5 g/ha,ECHCG [24]; dosage 5 g/ha,80%
same,pest or weed control at 20 g/ha,ECHCG [24]; dosage 20 g/ha,80%
